Data reported in US6930207B2, “Trifluoroacetylalkyl-substituted phenyl, phenol and benzoyl compounds and related methods of treatment” (Solvay Pharmaceutical GmbH, priority 2001, dated 2005).
Like-named read-outs stand apart in the source and are kept apart here.

Tests used:
[1] = target: T1, porcine pancreatic lipase (Sus scrofa, UniProt P00591); assay: in vitro pancreatic lipase activity test (lipolytic release of p-nitrophenol from p-nitrophenyl palmitate, extinction at 405 nm); type: biochemical; settings: read-out: residual lipase activity, relative to the original initial lipolytic activity; for remaining activity at 0.182 µM: test substance concentration 0.182 μM; for remaining activity at 0.091 µM: test substance concentration 0.091 μM
T1 sequence (P00591 1-450): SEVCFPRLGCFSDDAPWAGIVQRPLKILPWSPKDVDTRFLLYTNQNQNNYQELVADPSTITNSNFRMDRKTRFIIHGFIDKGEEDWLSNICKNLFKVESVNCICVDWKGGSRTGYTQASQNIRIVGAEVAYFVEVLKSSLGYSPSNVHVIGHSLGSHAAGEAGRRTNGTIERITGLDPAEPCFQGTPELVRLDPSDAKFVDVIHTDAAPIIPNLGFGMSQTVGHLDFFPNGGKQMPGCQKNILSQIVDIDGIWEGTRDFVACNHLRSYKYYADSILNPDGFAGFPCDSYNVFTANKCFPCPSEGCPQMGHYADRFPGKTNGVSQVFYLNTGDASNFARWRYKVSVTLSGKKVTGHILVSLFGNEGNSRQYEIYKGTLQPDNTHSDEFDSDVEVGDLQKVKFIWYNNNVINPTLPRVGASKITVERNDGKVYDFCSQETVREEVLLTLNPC
Procedure: In this test the inhibition of the lipolytic action of porcine pancreatic lipase with respect to the test substrate p-nitrophenyl palmitate under the influence of the test substances of Formula I was determined. Therein, the change in the relative extinction of the investigated solutions caused by the lipolytic release of p-nitrophenol from p-nitrophenyl palmitate was measured. The residual activity of the lipase remaining after the addition of the test substances is given in percent, relative to the original initial lipolytic activity. The example numbers quoted relate to the preparation examples given below.
The reagents given below are prepared: • 1. Substrate Solution • For the preparation of a “solution A”, 45 mg p-nitrophenyl palmitate was dissolved in 15 ml isopropanol by sonication with ultrasound. For the preparation of a “solution B” 310 mg Na-deoxycholate dry substance and 150 mg gum arabic were dissolved in 135 ml 0.05 M sodium phosphate buffer (pH=8.0). 5 minutes before the test was performed, 9 ml “solution B” was mixed with 1 ml “solution A” to form a “solution C” and brought to a temperature of 38° C. • 2. Pancreatic Lipase Solution • 100 mg FIP-lipase standard LS7 (porcine pancreatic lipase, 36,700 FIP units/g) were dissolved in 50 ml ice-cold 1%-strength aqueous sodium chloride solution and filtered through a 0.2 μm-syringe filter. After determination of the lipase activity in accordance with FIP, the solution was set to an activity of 40 FIP units/ml with 1%-strength aqueous sodium chloride solution. Dilute pancreatic lipase solutions which had activities of in each case 10, 20 and 30 FIP units/ml were also prepared from the pancreatic lipase solution for a calibration series by diluting with 1%-strength aqueous sodium chloride solution. • 3. Inhibitor Solutions • The lipase-inhibitory compounds of Formula I were dissolved in various concentrations in dimethyl sulfoxide (DMSO), so that between 2.0 and 800 nmol of the inhibitor were present in 100 μl inhibitor solution. Pure DMSO was used to determine the blank reading. Performance of the Test
100 μl of the inhibitor solution of a given concentration prepared as described above was temperature-controlled for 5 minutes in the cell changer of a photometer (Biochrom 4060). Then 1 ml of the above “solution C” was added with stirring. Then the reaction was started by addition of 100 μl pancreatic lipase solution with stirring. 2 minutes after the start of the reaction, the extinction of each sample was detected for 4 minutes at 405 nm.
In each case, in addition to the sample measurement, a calibration series was also measured to determine the lipase activity. […] The calibration series served to determine the lipase activity. To determine the calibration series, the lipase units used were plotted against the extinction values (dE/min) determined in each case. Using these calibration lines and the extinction values determined for the respective incubation batches, the lipase activity can be determined for each sample. […] To determine the blank reading, 100 μl DMSO were mixed with 1 ml “solution C” and the reaction was started by addition of 100 μl of a lipase solution.
The measured value of the photometer per batch (dE/min.) is yielded by the difference in the extinction values after the second and sixth minute (dE) divided by the measuring time (dt=4 min.). The blank reading is determined analogously and then subtracted from the measured value. The residual activity can be read off via the calibration line by means of the dE value calculated in this manner.
In the pancreatic lipase activity test set forth above, the test substances given below each in a concentration (c) of 0.727 μM (unless otherwise stated) caused an inhibition of the lipase activity to the fraction of the original initial activity given below. The compounds of Examples 17, 28, 29, 32, 39, 40, 47, 48, 56, 58 and 59 were measured in a concentration of 0.364 μM each time. […]

[2] = test substance concentration (c) 0.727 μM, substrate p-nitrophenyl palmitate
[3] = substrate p-nitrophenyl palmitate
[4] = range of examples with mixed concentrations: 0.727 μM unless otherwise stated, Ex. 17, 28, 29, 32, 39, 40, 47, 48, 56, 58, 59 at 0.364 μM, 21, 35, 37, 38, 49, 50, 51, 54, 55, 64 at 0.182 μM, 46, 61, 62, 65 at 0.091 μM

COc1ccc(CCCC(=O)C(F)(F)F)cc1 [Example 11, 5-(4-methoxyphenyl)-1,1,1-trifluoropentan-2-one]
remaining activity at 0.727 µM [1, 2]: ≤ 60%

O=C(CCCCCCCCCc1ccccc1)C(F)(F)F [Example 8, 1,1,1-trifluoro-11-phenyl-undecan-2-one]
remaining activity at 0.727 µM [1, 2]: ≤ 60%

O=C(CCCCCCCCCCOc1ccccc1)C(F)(F)F [Example 5, 1,1,1-trifluoro-12-phenoxy-dodecan-2-one]
melting point: 47 to 49 °C | remaining activity at 0.727 µM [1, 2]: ≤ 60%

O=C(CCCC(=O)C(F)(F)F)c1ccc(-c2cccc3ccccc23)cc1 [Example 37, 6,6,6-trifluoro-1-[4-(1-naphthyl)phenyl]hexane-1,5-dione]
remaining activity at 0.182 µM [1, 3]: ≤ 20%

CCCCCCCCCCCCCCOc1ccc(C(=O)CCCC(=O)C(F)(F)F)cc1 [Example 65, 6,6,6-trifluoro-1-(4-(tetradecyloxy)phenyl)hexane-1,5-dione]
melting point: 63.3 to 65 °C | remaining activity at 0.091 µM [1, 3]: ≤ 20%

O=C(CCCOc1ccc(OCCCc2ccccc2)cc1)C(F)(F)F [Example 32, 1,1,1-trifluoro-5-[4-(3-phenylpropoxy)phenoxy]pentan-2-one]
melting point: 32 to 35 °C

O=C(CCCC(=O)C(F)(F)F)c1cccc(OCc2ccccc2)c1 [Example 34, 6,6,6-trifluoro-1-(3-benzyloxyphenyl)hexane-1,5-dione]
remaining activity at 0.727 µM [1, 2]: ≤ 20%

O=C(CCCC(=O)C(F)(F)F)c1ccc(Br)cc1 [Example 57, 1-(4-bromophenyl)-6,6,6-trifluorohexane-1,5-dione]
remaining activity at 0.727 µM [1, 2]: ≤ 35%

O=C(CCCC(=O)C(F)(F)F)c1ccc(OCCCc2ccccc2)cc1 [Example 55, 6,6,6-trifluoro-1-(4-(3-phenylpropoxy)phenyl)hexane-1,5-dione]
melting point: 52.6 to 54.5 °C | remaining activity at 0.727 µM [1, 4]: ≤ 60% | remaining activity at 0.182 µM [1, 3]: ≤ 35%

CCCCCCCCCCCCCCCCOc1ccc(C(=O)CCCC(=O)C(F)(F)F)cc1 [Example 63, 6,6,6-trifluoro-1-(4-(hexadecyloxy)phenyl)hexane-1,5-dione]
melting point: 67.7 to 68.9 °C

COc1ccc(C(=O)CCCC(=O)C(F)(F)F)cc1CCCCc1ccccc1 [Example 35, 6,6,6-trifluoro-1-[4-methoxy-3-(4-phenylbutyl)phenyl]hexane-1,5-dione]
remaining activity at 0.182 µM [1, 3]: ≤ 35%

O=C(CCCC(=O)C(F)(F)F)c1ccc(OCCCCOc2ccccc2)cc1 [Example 54, 6,6,6-trifluoro-1-(4-(4-phenoxybutoxy)phenyl)hexane-1,5-dione]
melting point: 78.8 to 80.4 °C | remaining activity at 0.727 µM [1, 4]: ≤ 60% | remaining activity at 0.182 µM [1, 3]: ≤ 35%

O=C(CCCC(=O)C(F)(F)F)c1ccc(-c2ccc3ccccc3c2)cc1 [Example 62, 6,6,6-trifluoro-1-(4-(2-naphthyl)phenyl)hexane-1,5-dione]
remaining activity at 0.727 µM [1, 4]: ≤ 20% | remaining activity at 0.091 µM [1, 3]: ≤ 60%

O=C(CCCC(=O)C(F)(F)F)c1ccc2c(c1)CCCC2 [Example 60, 6,6,6-trifluoro-1-(5,6,7,8-tetrahydronaphthalen-2-yl)hexane-1,5-dione]
remaining activity at 0.727 µM [1, 4]: ≤ 20%

COc1ccc(C(=O)C(CCCCOc2ccccc2)CCC(=O)C(F)(F)F)cc1 (stereo not shown) [Example 38, 6,6,6-trifluoro-1-(4-methoxyphenyl)-2-(4-phenoxybutyl)hexane-1,5-dione]
remaining activity at 0.182 µM [1, 3]: ≤ 20%
